Assay results published in BindingDB's records for PubMed 9103528 (Pharmacia & Upjohn, 1997).

How the values were obtained:
[1] = biological target: 5-hydroxytryptamine receptor 2A (Rattus norvegicus, UniProt P14842)
[2] = biological target: T1, 5-hydroxytryptamine receptor 1A (Rattus norvegicus, UniProt P19327)
T1 sequence (P19327 whole entry): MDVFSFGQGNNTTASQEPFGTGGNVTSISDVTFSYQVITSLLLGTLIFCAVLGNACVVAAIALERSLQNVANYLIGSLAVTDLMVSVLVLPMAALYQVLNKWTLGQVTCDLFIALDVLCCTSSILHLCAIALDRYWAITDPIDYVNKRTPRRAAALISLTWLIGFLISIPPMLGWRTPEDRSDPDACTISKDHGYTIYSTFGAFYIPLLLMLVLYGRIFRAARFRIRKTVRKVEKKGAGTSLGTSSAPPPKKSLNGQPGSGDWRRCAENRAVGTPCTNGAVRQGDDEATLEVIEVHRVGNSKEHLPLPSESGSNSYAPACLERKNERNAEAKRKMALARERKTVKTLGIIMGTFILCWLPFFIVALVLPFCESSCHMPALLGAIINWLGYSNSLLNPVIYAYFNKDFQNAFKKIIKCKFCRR

D(2) dopamine receptor = D(2) dopamine receptor (Rattus norvegicus, UniProt P61169)
D(2) dopamine receptor, sequence (P61169 whole entry): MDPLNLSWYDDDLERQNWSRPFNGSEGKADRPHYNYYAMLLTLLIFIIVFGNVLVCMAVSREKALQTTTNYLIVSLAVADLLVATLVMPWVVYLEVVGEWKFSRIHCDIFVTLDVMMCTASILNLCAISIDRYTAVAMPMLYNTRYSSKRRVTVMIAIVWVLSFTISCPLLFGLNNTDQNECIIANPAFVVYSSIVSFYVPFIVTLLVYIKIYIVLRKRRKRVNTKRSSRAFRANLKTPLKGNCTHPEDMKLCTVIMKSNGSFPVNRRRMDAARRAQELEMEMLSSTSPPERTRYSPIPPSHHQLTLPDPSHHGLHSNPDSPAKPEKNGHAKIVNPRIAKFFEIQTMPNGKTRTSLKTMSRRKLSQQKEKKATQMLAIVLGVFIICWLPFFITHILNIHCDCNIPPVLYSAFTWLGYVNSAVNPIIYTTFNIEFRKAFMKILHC

[3] = biological target: T2, Alpha-1A adrenergic receptor (Rattus norvegicus, UniProt P43140)
T2 sequence (P43140 whole entry): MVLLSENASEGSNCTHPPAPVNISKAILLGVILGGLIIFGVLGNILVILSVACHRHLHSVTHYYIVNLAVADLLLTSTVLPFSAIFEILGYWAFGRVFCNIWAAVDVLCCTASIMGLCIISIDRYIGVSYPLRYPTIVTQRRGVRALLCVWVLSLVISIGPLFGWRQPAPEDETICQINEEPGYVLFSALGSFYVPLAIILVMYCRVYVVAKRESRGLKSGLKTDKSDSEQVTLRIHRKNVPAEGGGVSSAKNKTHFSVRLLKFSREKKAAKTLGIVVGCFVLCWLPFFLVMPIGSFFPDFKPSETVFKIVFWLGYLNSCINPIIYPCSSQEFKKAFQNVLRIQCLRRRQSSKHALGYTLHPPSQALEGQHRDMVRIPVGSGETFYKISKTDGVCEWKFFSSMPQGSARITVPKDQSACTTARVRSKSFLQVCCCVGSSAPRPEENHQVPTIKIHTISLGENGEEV

[4] = biological target: T3, Alpha-2C adrenergic receptor (Rattus norvegicus, UniProt P22086)
T3 sequence (P22086 whole entry): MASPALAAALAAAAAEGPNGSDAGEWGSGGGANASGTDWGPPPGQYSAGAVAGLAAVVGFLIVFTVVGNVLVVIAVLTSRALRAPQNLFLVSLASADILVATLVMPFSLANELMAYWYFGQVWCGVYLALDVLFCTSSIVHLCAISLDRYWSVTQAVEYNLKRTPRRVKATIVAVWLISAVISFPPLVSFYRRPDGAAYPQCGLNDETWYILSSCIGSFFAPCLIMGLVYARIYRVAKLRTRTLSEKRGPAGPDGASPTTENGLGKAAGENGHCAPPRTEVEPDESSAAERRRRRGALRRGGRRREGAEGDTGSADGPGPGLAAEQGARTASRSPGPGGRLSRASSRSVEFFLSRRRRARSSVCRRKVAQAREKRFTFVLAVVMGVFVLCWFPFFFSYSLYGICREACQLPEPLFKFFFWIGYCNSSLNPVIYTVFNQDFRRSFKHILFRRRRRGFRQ

[5] = biological target: T4, Muscarinic acetylcholine receptor M2 (Rattus norvegicus, UniProt P10980)
T4 sequence (P10980 whole entry): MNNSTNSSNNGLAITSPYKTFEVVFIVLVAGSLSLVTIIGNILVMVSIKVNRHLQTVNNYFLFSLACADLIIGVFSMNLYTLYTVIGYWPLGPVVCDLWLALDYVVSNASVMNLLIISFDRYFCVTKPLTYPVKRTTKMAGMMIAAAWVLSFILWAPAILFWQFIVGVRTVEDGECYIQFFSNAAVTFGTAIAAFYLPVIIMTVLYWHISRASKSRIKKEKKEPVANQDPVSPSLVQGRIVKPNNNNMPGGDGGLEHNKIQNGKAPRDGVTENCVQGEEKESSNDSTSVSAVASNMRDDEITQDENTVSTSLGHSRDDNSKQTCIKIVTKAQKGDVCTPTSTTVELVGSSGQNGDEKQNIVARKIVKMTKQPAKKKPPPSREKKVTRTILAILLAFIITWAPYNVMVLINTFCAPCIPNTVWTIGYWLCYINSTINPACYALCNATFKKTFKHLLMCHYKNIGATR

5-hydroxytryptamine receptor 2A, sequence (P14842 whole entry): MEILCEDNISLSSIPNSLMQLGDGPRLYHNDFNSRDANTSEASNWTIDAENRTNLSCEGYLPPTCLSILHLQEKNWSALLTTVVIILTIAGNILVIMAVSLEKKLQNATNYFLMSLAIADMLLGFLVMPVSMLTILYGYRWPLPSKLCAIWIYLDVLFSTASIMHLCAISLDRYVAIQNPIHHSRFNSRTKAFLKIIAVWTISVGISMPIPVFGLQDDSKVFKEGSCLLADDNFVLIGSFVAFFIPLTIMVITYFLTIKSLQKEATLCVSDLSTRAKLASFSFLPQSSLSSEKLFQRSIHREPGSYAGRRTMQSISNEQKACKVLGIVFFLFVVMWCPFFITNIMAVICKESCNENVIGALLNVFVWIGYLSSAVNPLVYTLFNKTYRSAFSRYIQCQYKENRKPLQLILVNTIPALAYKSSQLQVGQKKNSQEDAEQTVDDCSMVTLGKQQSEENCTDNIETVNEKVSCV

In the case of Fc1ccc(N2CCN(CCC3OCCc4ccccc43)CC2)cc1 (stereo unspecified) [CAS_170856-41-4], the Ki [1] is reported as 5.8 nM, the Ki [2] is reported as 134 nM and the Ki (D(2) dopamine receptor) is reported as 199 nM. It also gave a Ki [3] of 38 nM, a Ki [4] of 181 nM and a Ki [5] of 678 nM.
